We go through 4 compounds from ChEMBL document CHEMBL2062512, “Metronidazole thiosalicylate conjugates: synthesis, crystal structure, docking studies and antiamoebic activity” (Bioorg Med Chem Lett, 2012).

Assay [1] concerns Entamoeba histolytica. The assay can be described thus: […] activity against Entamoeba histolytica HM-1:IMSS after 72 hrs by eosin-staining method. The format is functional, organism-based.
For assay [2], the system named is MCF7. In words: Cytotoxicity against human MCF7 cells after 48 hrs by MTT assay. It counts as cell-based. The conditions noted are these: MCF7, 48 h.

Broadly, the IC50 is the concentration needed to halve the response being measured. High values mean weaker potency, low ones greater potency. With `COC(=O)c1ccccc1SCCn1c([N+](=O)[O-])cnc1C`, the IC50 is 28 nM in assay [1] and above 250000 nM in assay [2]. For `COC(=O)c1ccccc1[S+]([O-])CCn1c([N+](=O)[O-])cnc1C` (configuration not stated), the IC50 in assay [1] is 15 nM; in assay [2] it was above 250000 nM. For `COC(=O)c1ccccc1S(=O)(=O)CCn1c([N+](=O)[O-])cnc1C` the same measures were 21 nM and above 250000 nM.

As to `Cc1ncc([N+](=O)[O-])n1CCO` [METRONIDAZOLE], the IC50 in assay [2] was above 250000 nM.
